Publication PMC13576449, “Small-Molecule Activators of PRMT1: Discovery, SAR Analyses, and Proapoptotic Effects in Pancreatic Cancer Cells” (Journal of Medicinal Chemistry, 2026)
One block for each compound: values may come before it.

Key:
Type in all cases: biochemical
FLAG-tagged PRMT1 = target: T1, FLAG-tagged PRMT1 (Rattus norvegicus, UniProt Q63009); assay: Fluorescence-based in vitro PRMT assay (F-PRMT assay), PRMT1; conditions: for Experimental result (PRMT1): vs solvent control = 100%
T1 construct: Full-length FLAG-tagged PRMT protein; made in house; host or cells: Sf9 insect cells (baculovirus)

FLAG-tagged PRMT4 = target: T2, FLAG-tagged PRMT4 (Mus musculus, UniProt Q9WVG6); assay: Fluorescence-based in vitro PRMT assay (F-PRMT assay), PRMT4; conditions: for Experimental result (PRMT4): vs solvent control = 100%; for Efficacy ±Δ% (PRMT4): mean % difference of activity vs solvent control (100%), - inhibition, + activation
T2 construct: Full-length FLAG-tagged PRMT protein; made in house; host or cells: Sf9 insect cells (baculovirus)
T2 sequence (Q9WVG6 1-608): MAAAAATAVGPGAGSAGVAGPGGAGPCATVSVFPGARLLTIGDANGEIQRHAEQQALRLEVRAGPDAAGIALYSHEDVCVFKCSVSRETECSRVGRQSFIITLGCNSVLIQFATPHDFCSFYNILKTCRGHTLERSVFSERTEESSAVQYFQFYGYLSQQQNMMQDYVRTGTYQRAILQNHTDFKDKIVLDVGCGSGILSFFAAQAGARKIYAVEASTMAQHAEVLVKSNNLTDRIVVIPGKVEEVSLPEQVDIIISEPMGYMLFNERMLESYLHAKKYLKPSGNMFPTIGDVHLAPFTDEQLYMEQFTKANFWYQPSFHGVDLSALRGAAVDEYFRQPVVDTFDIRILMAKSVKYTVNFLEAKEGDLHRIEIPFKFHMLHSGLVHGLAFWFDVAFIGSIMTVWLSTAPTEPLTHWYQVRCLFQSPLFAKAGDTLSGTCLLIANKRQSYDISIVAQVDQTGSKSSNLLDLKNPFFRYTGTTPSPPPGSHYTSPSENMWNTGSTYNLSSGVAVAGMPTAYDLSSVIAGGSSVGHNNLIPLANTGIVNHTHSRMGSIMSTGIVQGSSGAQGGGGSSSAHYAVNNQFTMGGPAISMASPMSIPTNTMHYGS
From the text: (§1) To evaluate the effects of the selected candidate molecules on the catalytic activity of type I enzymes, we employed a quantitative fluorescence-based in vitro PRMT activity (F-PRMT) assay using recombinant FLAG-tagged PRMT proteins expressed and affinity-purified from baculovirus-infected Sf9 cells (SI Figure S1, SI Figure S2A).
(§2) Human cell lines (PaTu8988T, PANC-1) were obtained from ATCC (American Type Culture Collection) and cultured in DMEM supplemented with 10% fetal calf serum (FCS, Gibco/BRL), 1% penicillin/streptomycin at 37 °C and 5% CO2. […] For PRMT1 inhibition, cells were treated with type I PRMT inhibitor MS023 hydrochloride (Biomol). For induction of genotoxic stress, cells were treated with gemcitabine (LC Laboratories). […] The following plasmids were used: pFASTBAC-FLAG-rat PRMT1, pFASTBAC-FLAG-mouse PRMT4, and pGEX-GAR. The complete ORFs of human PRMT3 and PRMT6 were inserted into the pFASTBAC HT-3xFLAG B vector via BamHI/HindIII and BamHI/XhoI sites, respectively.
(§3) For PRMT protein expression in insect cells, recombinant baculovirus (bacmid) was generated using the Bac-to-Bac baculovirus system (Invitrogen). Sf9 cells were transfected with bacmid DNA using X-tremeGENE HP DNA transfection reagent (Sigma-Aldrich) according to the manufacturer's instructions. After 3–5 days, supernatants were collected, filtered, and used to infect Sf9 cells to amplify the virus. After 2 rounds of virus amplification and estimation of the final P3 virus titer, the P3 virus (2–5 μL/10^6 cells) was applied for large-scale infection of 200 × 10^6 Sf9 cells in suspension culture at a density of 1 × 10^6 cells/mL. Cells were harvested 5–6 days post-infection by centrifugation at 500 g for 5 min at room temperature. Protein purification from baculovirus-infected Sf9 cells was performed as previously described. , Cells were lysed in BC buffer (20 mM HEPES pH 7.9, 250 mM NaCl, 10% (v/v) glycerin, 0.4 mM EDTA, 1 mM DTT) containing a protease inhibitor cocktail (Roche) by 3 freeze-thaw cycles. After centrifugation at 11,000 rpm (Sorval SS34 rotor) and 4 °C for 1 h, the supernatant (whole cell protein extract) was incubated with anti-FLAG M2 Affinity Gel (Cytiva) at 4 °C and under agitation for 4 h. Subsequently, beads were washed in BC buffer containing various NaCl concentrations (once in BC with 1 M NaCl, twice in BC with 500 mM NaCl, twice in BC with 250 mM NaCl and twice in BC with 100 mM NaCl). FLAG-tagged proteins were either maintained bead-bound as a 50% (v/v) slurry in BC buffer with 100 mM NaCl and stored at −80 °C or were eluted in the appropriate elution buffer (depending on the subsequent assay) containing 0.25 mg/mL 3xFLAG peptides (Sigma-Aldrich) at 4 °C for 30–45 min. To remove the FLAG-peptides from the eluate, dialysis was performed in elution buffer containing 10% (v/v) glycerol at 4 °C for 4–6 h using Slide-A-Lyzer Dialysis Devices (Thermo Fisher Scientific) according to the manufacturer’s recommendations.
(§4) In the first step, the fluorogenic substrate Nα-Benzoyl-L-arginine-7-amido-4-methylcoumarin (Bz-Arg-AMC, Sigma-Aldrich) undergoes methylation by PRMTs upon the addition of the cofactor SAM. In the second reaction step, trypsin cleaves the nonmethylated substrate, leading to the generation of the 7-amino-4-methylcoumarin product, which can be quantified by subsequent fluorescence measurement (excitation: 355 nm, emission: 460 nm). The first reaction was conducted with bead-bound PRMTs at a total volume of 100 μL. Each condition was performed as a technical triplicate to determine the mean and the standard deviation. […] For the negative controls, SAM was substituted with assay buffer. The incubation was continued at 37 °C and under agitation (1,000 rpm) for a duration of 2 h.

FLAG-tagged PRMT3 = target: T3, FLAG-tagged PRMT3 (Homo sapiens, UniProt O60678); assay: Fluorescence-based in vitro PRMT assay (F-PRMT assay), PRMT3; conditions: Table 1; 100 μM compound, 2 μM PRMT, vs solvent control = 100%, n = 3; racemates used
T3 construct: The complete ORFs of human PRMT3 and PRMT6 were inserted; made in house; host or cells: Sf9 insect cells (baculovirus)
From the text: as §1, §2, §3, §4

FLAG-tagged PRMT6 = target: T4, FLAG-tagged PRMT6 (Homo sapiens, UniProt Q96LA8); assay: Fluorescence-based in vitro PRMT assay (F-PRMT assay), PRMT6; conditions: Table 1, 100 μM compound, n = 3; for Experimental result (PRMT6): 2 μM PRMT, vs solvent control = 100%, racemates used
T4 construct: The complete ORFs of human PRMT3 and PRMT6 were inserted; made in house; host or cells: Sf9 insect cells (baculovirus)
From the text: as §1, §2, §3, §4

[1] = Table 1, 100 μM compound, 2 μM PRMT, n = 3, racemates used
[2] = Table 1, 100 μM compound, n = 3
[3] = Table S2, 100 µM compound, n=3, racemates used

T3 sequence (O60678 whole entry): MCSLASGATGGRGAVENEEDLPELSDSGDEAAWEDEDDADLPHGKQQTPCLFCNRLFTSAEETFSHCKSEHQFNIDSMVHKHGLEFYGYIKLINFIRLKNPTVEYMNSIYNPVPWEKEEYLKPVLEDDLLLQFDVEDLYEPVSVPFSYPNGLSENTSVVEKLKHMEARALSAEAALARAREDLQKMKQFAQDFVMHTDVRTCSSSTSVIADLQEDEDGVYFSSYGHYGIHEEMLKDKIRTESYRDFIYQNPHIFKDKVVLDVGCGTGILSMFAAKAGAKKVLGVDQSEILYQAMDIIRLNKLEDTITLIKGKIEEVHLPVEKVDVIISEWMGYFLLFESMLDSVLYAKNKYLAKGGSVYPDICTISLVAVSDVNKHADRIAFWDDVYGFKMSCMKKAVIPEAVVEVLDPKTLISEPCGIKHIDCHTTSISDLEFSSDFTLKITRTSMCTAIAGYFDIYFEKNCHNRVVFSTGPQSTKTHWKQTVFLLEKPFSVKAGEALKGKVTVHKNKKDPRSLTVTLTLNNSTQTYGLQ
T4 sequence (Q96LA8 whole entry): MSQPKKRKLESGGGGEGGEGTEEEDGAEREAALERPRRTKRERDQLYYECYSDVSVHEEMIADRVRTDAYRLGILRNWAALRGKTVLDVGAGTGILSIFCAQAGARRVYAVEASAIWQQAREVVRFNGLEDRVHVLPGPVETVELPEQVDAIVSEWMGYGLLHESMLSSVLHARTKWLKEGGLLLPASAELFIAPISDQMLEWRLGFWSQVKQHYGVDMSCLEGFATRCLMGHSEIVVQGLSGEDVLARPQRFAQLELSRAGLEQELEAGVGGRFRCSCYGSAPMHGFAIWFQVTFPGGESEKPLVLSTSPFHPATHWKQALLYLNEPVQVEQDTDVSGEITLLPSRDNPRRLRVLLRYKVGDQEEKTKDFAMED
T1 sequence (Q63009 whole entry): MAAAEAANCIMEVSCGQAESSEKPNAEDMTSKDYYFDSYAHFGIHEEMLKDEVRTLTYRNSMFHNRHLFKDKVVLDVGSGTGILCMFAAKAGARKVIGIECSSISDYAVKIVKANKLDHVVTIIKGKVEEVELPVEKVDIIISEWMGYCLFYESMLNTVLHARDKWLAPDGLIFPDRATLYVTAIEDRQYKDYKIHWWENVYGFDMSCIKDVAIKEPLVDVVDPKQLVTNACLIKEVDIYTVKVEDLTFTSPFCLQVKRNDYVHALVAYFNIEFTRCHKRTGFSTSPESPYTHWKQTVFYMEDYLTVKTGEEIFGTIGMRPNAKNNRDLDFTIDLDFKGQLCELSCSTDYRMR

Experimental result (PRMT4) (FLAG-tagged PRMT4; [1]): PRMT4 i | Efficacy ±Δ% (PRMT4) (FLAG-tagged PRMT4; [2]): -50% | Experimental result (PRMT6) (FLAG-tagged PRMT6): PRMT6 i | Efficacy ±Δ% (PRMT6) (FLAG-tagged PRMT6; mean % difference of activity vs solvent control (100%), - inhibition, + activation): -8%
Structure (SMILES): NCC(=O)Nc1ccc(NC(=O)c2ccco2)cc1 [Compound K002JS013]
Experimental result (PRMT1) (FLAG-tagged PRMT1; [1]): PRMT1 n.e. (Compounds, which did not significantly affect the catalytic activity (less than ±6% change or not significant p-value), are marked with [drawing 8] (no effect)) | Experimental result (PRMT3) (FLAG-tagged PRMT3): PRMT3 n.e. (Compounds, which did not significantly affect the catalytic activity (less than ±6% change or not significant p-value), are marked with [drawing 8] (no effect))

Experimental result (PRMT4) (FLAG-tagged PRMT4; [1]): PRMT4 i | Efficacy ±Δ% (PRMT4) (FLAG-tagged PRMT4; [2]): -10% | Experimental result (PRMT6) (FLAG-tagged PRMT6): PRMT6 i
Structure (SMILES): CNCCCNCCc1ccccc1 [Compound K001JS006]
Experimental result (PRMT1) (FLAG-tagged PRMT1; [1]): PRMT1 n.e. (Compounds, which did not significantly affect the catalytic activity (less than ±6% change or not significant p-value), are marked with [drawing 8] (no effect)) | Experimental result (PRMT3) (FLAG-tagged PRMT3): PRMT3 n.e. (Compounds, which did not significantly affect the catalytic activity (less than ±6% change or not significant p-value), are marked with [drawing 8] (no effect))

Experimental result (PRMT1) (FLAG-tagged PRMT1; [1]): PRMT1 i | Efficacy ±Δ% (PRMT1) (FLAG-tagged PRMT1; Table 1, 100 μM compound, mean % difference of activity vs solvent control (100%), - inhibition, + activation, n = 3): -30% | Experimental result (PRMT4) (FLAG-tagged PRMT4; [1]): PRMT4 i | Experimental result (PRMT6) (FLAG-tagged PRMT6): PRMT6 i
Structure (SMILES): CNC[C@H](O)COc1ccc([N+](=O)[O-])cc1Cl (racemic) [Compound K001JS007]
Experimental result (PRMT3) (FLAG-tagged PRMT3): PRMT3 n.e. (Compounds, which did not significantly affect the catalytic activity (less than ±6% change or not significant p-value), are marked with [drawing 8] (no effect))

Structure (SMILES): CS(=O)(=O)c1ccc(C(=O)NCc2nc3cc(F)ccc3[nH]2)cc1 [Compound K001JS011]
Experimental result (PRMT4) (FLAG-tagged PRMT4; [3]): n.e. (did not significantly affect the catalytic activity of the intended PRMT (less than ±6% change or not significant p-value), are marked with n.e. (no effect))

Structure (SMILES): CNC(=O)Cn1cc(NC(=O)[C@@H]2CC[C@@H]2N)cn1 (racemic) [Compound K400JK012]
Experimental result (PRMT4) (FLAG-tagged PRMT4; [3]): n.e. (did not significantly affect the catalytic activity of the intended PRMT (less than ±6% change or not significant p-value), are marked with n.e. (no effect))

effect on PRMT1 activity (in words) (FLAG-tagged PRMT1; 100 μM compound): no significant effect
Structure (SMILES): CO/C=C1/C(=O)NC(=O)c2ccccc21 [TR-02, (E/Z)-4-(Methoxymethylene)isoquinoline-1,3(2H,4H)-dione]
Experimental result (PRMT1) (FLAG-tagged PRMT1; Table S3, 100 µM compound, n≥3): n.e. (did not significantly affect the catalytic activity (less than ±6% change or not significant p-value), are marked with n.e. (no effect)) | Experimental result (PRMT4) (FLAG-tagged PRMT4; Table S3, 100 µM compound, n≥3): n.e. (did not significantly affect the catalytic activity (less than ±6% change or not significant p-value), are marked with n.e. (no effect))

Structure (SMILES): O=c1ccc([N+](=O)[O-])cn1Cc1nccn1Cc1ccccc1 [Compound K001JS009]
Experimental result (PRMT4) (FLAG-tagged PRMT4; [3]): n.e. (did not significantly affect the catalytic activity of the intended PRMT (less than ±6% change or not significant p-value), are marked with n.e. (no effect))

Structure (SMILES): Cn1ccnc1Cn1c(CCCN)nc2c1CCCC2 [Compound K001FT006]
Experimental result (PRMT4) (FLAG-tagged PRMT4; [3]): n.e. (did not significantly affect the catalytic activity of the intended PRMT (less than ±6% change or not significant p-value), are marked with n.e. (no effect))

Structure (SMILES): COc1cccc(NC(=O)COC(=O)c2cc3ccccc3[nH]2)c1 [Compound K001JS005]
Experimental result (PRMT4) (FLAG-tagged PRMT4; [3]): n.e. (did not significantly affect the catalytic activity of the intended PRMT (less than ±6% change or not significant p-value), are marked with n.e. (no effect))

Efficacy ±∆% (PRMT4) (FLAG-tagged PRMT4; Table S2, 100 µM compound, mean % difference vs solvent control (100%), n=3): -50%
Structure (SMILES): NCCNC[C@@H](O)COc1ccc(Cl)c(Cl)c1 (racemic) [Compound K001FT003]

Structure (SMILES): NCCCNCc1sc2ccccc2c1Cl [Compound K001FT010]
Experimental result (PRMT4) (FLAG-tagged PRMT4; [3]): n.e. (did not significantly affect the catalytic activity of the intended PRMT (less than ±6% change or not significant p-value), are marked with n.e. (no effect))

Structure (SMILES): N/C(Cn1ccn2nc(-c3cccs3)cc2c1=O)=N\O [Compound K400JK015]
Experimental result (PRMT4) (FLAG-tagged PRMT4; [3]): n.e. (did not significantly affect the catalytic activity of the intended PRMT (less than ±6% change or not significant p-value), are marked with n.e. (no effect))

Structure (SMILES): CC[C@H](NC(=O)c1cccc(Cn2cccn2)c1)c1nc(C)c[nH]1 (racemic) [Compound K001FT009]
Experimental result (PRMT4) (FLAG-tagged PRMT4; [3]): n.e. (did not significantly affect the catalytic activity of the intended PRMT (less than ±6% change or not significant p-value), are marked with n.e. (no effect))

Structure (SMILES): CNCCCc1ncc(-c2ccccc2Br)[nH]1 [Compound K001FT002]
Experimental result (PRMT4) (FLAG-tagged PRMT4; [3]): n.e. (did not significantly affect the catalytic activity of the intended PRMT (less than ±6% change or not significant p-value), are marked with n.e. (no effect))

Structure (SMILES): NCCc1cn2cccc(OCc3ccccc3)c2n1 [Compound K001FT005]
Experimental result (PRMT4) (FLAG-tagged PRMT4; [3]): n.e. (did not significantly affect the catalytic activity of the intended PRMT (less than ±6% change or not significant p-value), are marked with n.e. (no effect))

Structure (SMILES): Cc1nc([C@@H](O)Cc2ccccc2)n(CCc2cnc[nH]2)n1 (racemic) [Compound K001FT007]
Experimental result (PRMT4) (FLAG-tagged PRMT4; [3]): n.e. (did not significantly affect the catalytic activity of the intended PRMT (less than ±6% change or not significant p-value), are marked with n.e. (no effect))

Structure (SMILES): COC(=O)COc1ccc(NC(=O)C23CC(CN2)C3)cc1 [Compound K400JK003]
Experimental result (PRMT4) (FLAG-tagged PRMT4; [3]): n.e. (did not significantly affect the catalytic activity of the intended PRMT (less than ±6% change or not significant p-value), are marked with n.e. (no effect))

Structure (SMILES): CNCCCNCc1ccccc1Br [Compound K001FT011]
Experimental result (PRMT4) (FLAG-tagged PRMT4; [3]): n.e. (did not significantly affect the catalytic activity of the intended PRMT (less than ±6% change or not significant p-value), are marked with n.e. (no effect))
